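Five concentrations, 48 hours, 96-well plates. GI50 is the concentration that inhibits growth by half.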 Activity calls are given as the source filed them. Rule as the data show it: active = GI50 up to about 1.1 µM and inactive = higher.
How the values were obtained:
Assay in all cases: inhibition of tumour cell growth, NCI panel, 48 h
BT-549 = test system: BT-549
COLO 205 = test system: COLO 205
EKVX = test system: EKVX
Hs-578T = test system: Hs-578T
IGROV-1 = test system: IGROV-1
K562 = test system: K562
M14 = test system: M14
MDA-MB-435 = test system: MDA-MB-435
MDA-N = test system: MDA-N
NCI-H23 = test system: NCI-H23
OVCAR-3 = test system: OVCAR-3
OVCAR-4 = test system: OVCAR-4
OVCAR-8 = test system: OVCAR-8
PC-3 = test system: PC-3
SK-MEL-28 = test system: SK-MEL-28
SK-MEL-5 = test system: SK-MEL-5
SK-OV-3 = test system: SK-OV-3
SNB-19 = test system: SNB-19
TK-10 = test system: TK-10
UO-31 = test system: UO-31

With `C#C[C@]1(O)CC[C@H]2[C@@H]3CCC4=C/C(=N\OCCN5CCCCC5)CC[C@]4(C)[C@H]3CC[C@@]21C` the GI50 (BT-549) was 5.89 µM (inactive), the GI50 (COLO 205) was 2.12 µM (inactive) and the GI50 (EKVX) was 8.15 µM (inactive). The GI50 (Hs-578T) was 3.53 µM (inactive), the GI50 (IGROV-1) was 7.18 µM (inactive) and the GI50 (K562) was 1.65 µM (inactive). The GI50 (M14) was 3.27 µM (inactive), the GI50 (MDA-MB-435) was 2.24 µM (inactive) and the GI50 (MDA-N) was 1.66 µM (inactive). The GI50 (NCI-H23) was 3.83 µM (inactive), the GI50 (OVCAR-3) was 5.15 µM (inactive) and the GI50 (OVCAR-4) was 13.6 µM (inactive). For the same compound, the GI50 (OVCAR-8) was 8.02 µM (inactive), the GI50 (PC-3) was 3.39 µM (inactive) and the GI50 (SK-MEL-28) was 8.13 µM (inactive). The GI50 (SK-MEL-5) was 2.23 µM (inactive), the GI50 (SK-OV-3) was 16 µM (inactive) and the GI50 (SNB-19) was 6.9 µM (inactive). For the same compound, the GI50 (TK-10) was 7.28 µM (inactive) and the GI50 (UO-31) was 4.23 µM (inactive).

With `O=C(OCCN=c1c2ccccc2ccc2ccccc12)c1cc([N+](=O)[O-])cc([N+](=O)[O-])c1` the GI50 (BT-549) was 25.8 µM (inactive), the GI50 (COLO 205) was > 100 µM (inactive) and the GI50 (EKVX) was > 100 µM (inactive). The GI50 (Hs-578T) was > 100 µM (inactive), the GI50 (IGROV-1) was > 100 µM (inactive) and the GI50 (K562) was > 100 µM (inactive). The GI50 (M14) was > 100 µM (inactive), the GI50 (MDA-MB-435) was > 100 µM (inactive) and the GI50 (MDA-N) was > 100 µM (inactive). For the same compound, the GI50 (NCI-H23) was > 100 µM (inactive), the GI50 (OVCAR-3) was 40.6 µM (inactive) and the GI50 (OVCAR-4) was 36.1 µM (inactive). The GI50 (OVCAR-8) was > 100 µM (inactive), the GI50 (PC-3) was > 100 µM (inactive) and the GI50 (SK-MEL-28) was > 100 µM (inactive). The GI50 (SK-MEL-5) was > 100 µM (inactive), the GI50 (SK-OV-3) was > 100 µM (inactive) and the GI50 (SNB-19) was > 100 µM (inactive). For the same compound, the GI50 (TK-10) was > 100 µM (inactive) and the GI50 (UO-31) was > 100 µM (inactive).

In the case of `CC(=O)O[C@H]1[C@@H](N2CCOCC2)C[C@H]2[C@@H]3CC=C4C[C@@H](N5CCCC5)CC[C@]4(C)[C@H]3CC[C@@]21C`, the GI50 (BT-549) is reported as > 100 µM (inactive), the GI50 (COLO 205) is reported as > 100 µM (inactive) and the GI50 (EKVX) is reported as > 100 µM (inactive). For the same compound, the GI50 (Hs-578T) was > 100 µM (inactive), the GI50 (IGROV-1) was > 100 µM (inactive) and the GI50 (K562) was 24 µM (inactive). For the same compound, the GI50 (M14) was 35.4 µM (inactive), the GI50 (MDA-MB-435) was > 100 µM (inactive) and the GI50 (MDA-N) was > 100 µM (inactive). For the same compound, the GI50 (NCI-H23) was > 100 µM (inactive), the GI50 (OVCAR-3) was > 100 µM (inactive) and the GI50 (OVCAR-4) was > 100 µM (inactive). For the same compound, the GI50 (OVCAR-8) was > 100 µM (inactive), the GI50 (PC-3) was > 100 µM (inactive) and the GI50 (SK-MEL-28) was > 100 µM (inactive). The GI50 (SK-MEL-5) was > 100 µM (inactive), the GI50 (SK-OV-3) was > 100 µM (inactive) and the GI50 (SNB-19) was > 100 µM (inactive). The GI50 (TK-10) was > 100 µM (inactive) and the GI50 (UO-31) was > 100 µM (inactive).

For `O=C1c2ccccc2-c2nc(-c3ccccc3)cc3c2c1nc1ccccc13`, the GI50 (BT-549) was 17.7 µM (inactive), the GI50 (COLO 205) was 25.6 µM (inactive) and the GI50 (EKVX) was 23.5 µM (inactive). For the same compound, the GI50 (Hs-578T) was 22.6 µM (inactive), the GI50 (IGROV-1) was 4.12 µM (inactive) and the GI50 (K562) was 1 µM (active). For the same compound, the GI50 (M14) was 5.55 µM (inactive), the GI50 (MDA-MB-435) was 1.87 µM (inactive) and the GI50 (MDA-N) was 1.89 µM (inactive). For the same compound, the GI50 (NCI-H23) was 3.6 µM (inactive), the GI50 (OVCAR-3) was 0.141 µM (active) and the GI50 (OVCAR-4) was 26.7 µM (inactive). The GI50 (OVCAR-8) was 16.4 µM (inactive), the GI50 (PC-3) was 4.08 µM (inactive) and the GI50 (SK-MEL-28) was 9.25 µM (inactive). The GI50 (SK-MEL-5) was 2.67 µM (inactive), the GI50 (SK-OV-3) was 19.5 µM (inactive) and the GI50 (SNB-19) was 19.4 µM (inactive). For the same compound, the GI50 (TK-10) was 15.3 µM (inactive) and the GI50 (UO-31) was 11.4 µM (inactive).

For `NNC(=O)c1ccc(OCc2nc3ccccc3[nH]2)cc1`, the GI50 (BT-549) was 52.2 µM (inactive), the GI50 (COLO 205) was 71.4 µM (inactive) and the GI50 (EKVX) was > 100 µM (inactive). The GI50 (Hs-578T) was 28.1 µM (inactive), the GI50 (IGROV-1) was > 100 µM (inactive) and the GI50 (K562) was 39.5 µM (inactive). The GI50 (M14) was 53.1 µM (inactive), the GI50 (MDA-MB-435) was > 100 µM (inactive) and the GI50 (MDA-N) was > 100 µM (inactive). For the same compound, the GI50 (NCI-H23) was > 100 µM (inactive), the GI50 (OVCAR-3) was 43.5 µM (inactive) and the GI50 (OVCAR-4) was > 100 µM (inactive). The GI50 (OVCAR-8) was > 100 µM (inactive), the GI50 (PC-3) was > 100 µM (inactive) and the GI50 (SK-MEL-28) was > 100 µM (inactive). The GI50 (SK-MEL-5) was 27.9 µM (inactive), the GI50 (SK-OV-3) was > 100 µM (inactive) and the GI50 (SNB-19) was > 100 µM (inactive). The GI50 (TK-10) was > 100 µM (inactive) and the GI50 (UO-31) was 48.5 µM (inactive).

In the case of `O=S1(=O)OCCOS(=O)(=O)C1C1c2ccccc2-c2ccccc21`, the GI50 (BT-549) is reported as 48.8 µM (inactive), the GI50 (COLO 205) is reported as 70.5 µM (inactive) and the GI50 (EKVX) is reported as 42.8 µM (inactive). For the same compound, the GI50 (Hs-578T) was 44.9 µM (inactive), the GI50 (IGROV-1) was 23.5 µM (inactive) and the GI50 (K562) was 31.3 µM (inactive). The GI50 (M14) was 38.3 µM (inactive), the GI50 (MDA-MB-435) was 33.6 µM (inactive) and the GI50 (MDA-N) was 36.7 µM (inactive). For the same compound, the GI50 (NCI-H23) was 28.7 µM (inactive), the GI50 (OVCAR-3) was 47 µM (inactive) and the GI50 (OVCAR-4) was 23 µM (inactive). The GI50 (OVCAR-8) was 50.8 µM (inactive), the GI50 (PC-3) was 90.4 µM (inactive) and the GI50 (SK-MEL-28) was 67.6 µM (inactive). The GI50 (SK-MEL-5) was 28.7 µM (inactive), the GI50 (SK-OV-3) was 40.3 µM (inactive) and the GI50 (SNB-19) was 38.5 µM (inactive). The GI50 (TK-10) was > 100 µM (inactive) and the GI50 (UO-31) was 28.7 µM (inactive).

`CC[S+]1C2=C(CC(C)(C)CC2=O)[N-]c2ccccc21` (stereo not given) was tested, and the GI50 (BT-549) was > 100 µM (inactive), the GI50 (COLO 205) was > 100 µM (inactive) and the GI50 (EKVX) was > 100 µM (inactive). For the same compound, the GI50 (Hs-578T) was 78.3 µM (inactive), the GI50 (IGROV-1) was > 100 µM (inactive) and the GI50 (K562) was > 100 µM (inactive). The GI50 (M14) was > 100 µM (inactive), the GI50 (MDA-MB-435) was > 100 µM (inactive) and the GI50 (MDA-N) was > 100 µM (inactive). The GI50 (NCI-H23) was > 100 µM (inactive), the GI50 (OVCAR-3) was > 100 µM (inactive) and the GI50 (OVCAR-4) was > 100 µM (inactive). The GI50 (OVCAR-8) was > 100 µM (inactive), the GI50 (PC-3) was > 100 µM (inactive) and the GI50 (SK-MEL-28) was > 100 µM (inactive). The GI50 (SK-MEL-5) was > 100 µM (inactive), the GI50 (SK-OV-3) was > 100 µM (inactive) and the GI50 (SNB-19) was > 100 µM (inactive). For the same compound, the GI50 (TK-10) was > 100 µM (inactive) and the GI50 (UO-31) was > 100 µM (inactive).

For `NS(=O)(=O)c1cc(C(=O)O)c(Cl)c([N+](=O)[O-])c1Cl`, the GI50 (BT-549) was > 100 µM (inactive), the GI50 (COLO 205) was > 100 µM (inactive) and the GI50 (EKVX) was > 100 µM (inactive). The GI50 (Hs-578T) was > 100 µM (inactive), the GI50 (IGROV-1) was > 100 µM (inactive) and the GI50 (K562) was > 100 µM (inactive). The GI50 (M14) was > 100 µM (inactive), the GI50 (MDA-MB-435) was > 100 µM (inactive) and the GI50 (MDA-N) was > 100 µM (inactive). For the same compound, the GI50 (NCI-H23) was > 100 µM (inactive), the GI50 (OVCAR-3) was > 100 µM (inactive) and the GI50 (OVCAR-4) was > 100 µM (inactive). For the same compound, the GI50 (OVCAR-8) was > 100 µM (inactive), the GI50 (PC-3) was > 100 µM (inactive) and the GI50 (SK-MEL-28) was > 100 µM (inactive). For the same compound, the GI50 (SK-MEL-5) was > 100 µM (inactive), the GI50 (SK-OV-3) was > 100 µM (inactive) and the GI50 (SNB-19) was > 100 µM (inactive). The GI50 (TK-10) was > 100 µM (inactive) and the GI50 (UO-31) was > 100 µM (inactive).

Source: ChEMBL document CHEMBL1201862, “PubChem BioAssay data set” (2004)
